Data from ChEMBL document CHEMBL1137157, “Synthesis and biological activity of 2-anilino-4-(1H-pyrrol-3-yl) pyrimidine CDK inhibitors” (Bioorg Med Chem Lett, 2004).

Assays:
[1] = molecular target: Cyclin-dependent kinase 4 (Homo sapiens, UniProt P11802); test: Inhibition of Cyclin dependent kinase 4
Cell line = test: inhibitory concentration for anti-proliferative activity against A549 and […] human tumor cell lines was determined; assay type: functional, cell-based
[2] = molecular target: Cyclin-dependent kinase 2 (Homo sapiens, UniProt P24941); test: Inhibition of Cyclin dependent kinase 2

Chain of Cyclin-dependent kinase 4 (P11802 whole entry): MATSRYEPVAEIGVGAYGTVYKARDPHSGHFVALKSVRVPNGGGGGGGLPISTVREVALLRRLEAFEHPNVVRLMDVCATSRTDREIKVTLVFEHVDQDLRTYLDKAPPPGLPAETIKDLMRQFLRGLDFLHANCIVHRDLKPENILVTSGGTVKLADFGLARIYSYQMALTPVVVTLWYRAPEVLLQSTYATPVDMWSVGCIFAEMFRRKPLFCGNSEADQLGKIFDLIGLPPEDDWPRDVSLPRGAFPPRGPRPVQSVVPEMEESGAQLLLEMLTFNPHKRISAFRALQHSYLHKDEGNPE

| Compound | Ki [1] [nM] | Ki [2] [nM] | IC50 (Cell line) [nM] |
| --- | --- | --- | --- |
| Cc1c[nH]c(C)c1-c1ccnc(Nc2cccc([N+](=O)[O-])c2)n1 | 4170 | – | – |
| Cc1ccc(Nc2nccc(-c3c(C)[nH]c(C#N)c3C)n2)cc1[N+](=O)[O-] | – | – | 380 |
| Cc1[nH]c(C#N)c(C)c1-c1ccnc(Nc2ccc(F)cc2)n1 | – | 100 | 2440 |
| Cc1[nH]c(C(N)=O)c(C)c1-c1ccnc(Nc2ccc(F)cc2)n1 | 420 | – | 1640 |
| Cc1[nH]c(C#N)c(C)c1-c1ccnc(Nc2ccc(O)cc2)n1 | – | – | 1360 |
| Cc1ccc(Nc2nccc(-c3c(C)[nH]c(C#N)c3C)n2)cc1O | – | – | 1170 |
| Cc1[nH]c(C#N)c(C)c1-c1ccnc(Nc2cccc([N+](=O)[O-])c2)n1 | – | – | 360 |
| Cc1[nH]c([N+](=O)[O-])c(C)c1-c1ccnc(Nc2ccc(F)cc2)n1 | 120 | – | 3120 |

Continued, in another order:

| Ki [1] [nM] | Ki [2] [nM] | Compound | IC50 (Cell line) [nM] |
| --- | --- | --- | --- |
| 300 | – | Cc1cc(Nc2nccc(-c3c(C)[nH]c(C#N)c3C)n2)ccc1F | 890 |
| – | 360 | Cc1[nH]c(Cl)c(C)c1-c1ccnc(Nc2ccc(F)cc2)n1 | 13000 |
| – | 270 | Cc1[nH]c(Br)c(C)c1-c1ccnc(Nc2ccc(F)cc2)n1 | 16000 |
| – | 30 | Cc1[nH]c(C#N)c(C)c1-c1ccnc(Nc2cccc(O)c2)n1 | 1840 |
